Source: US20240246908A1 (ORION CORPORATION, priority 2021, published 2024)

System: YAP-TEAD
Assay: TEAD inhibition, Hippo Pathway TEAD Reporter MCF-7 luciferase assay
Format: cell-based
Conditions: Homo sapiens, MCF7, 24 h, Hippo Pathway TEAD Reporter MCF-7 cells, luciferase activity after 24 h; read-out: IC50 of the test compounds on YAP-TEAD inhibition (Group)
Method: TEAD inhibition was assayed using Hippo Pathway TEAD Reporter—MCF-7 cell line (BPS Bioscience, Catalog #: 60618) which contains firefly luciferase gene under the control of TEAD responsive elements. In the cell line, YAP1 remains in the nucleus inducing constitutive expression of luciferase reporter. Amount of expressed luciferase was detected using ONE-Glo Luciferase Assay System (Promega) and measuring plates with Enspire Multimode Plate Reader (PerkinElmer).
Hippo Pathway TEAD Reporter—MCF-7 cells were plated on white/clear Poly-D-Lysine coated 384 plates (Corning #356660) at the density of 8500 cells/well. Next day test compounds (11 concentrations with 4 replicates) and DMSO control (0.1%) were added to the plate. After 24 h cells were lysed and luciferase activity was measured. The half maximal inhibitory concentration (IC50) of the test compounds on YAP-TEAD inhibition was determined.

`COc1ccc(Oc2cccc(C(F)(F)F)c2)cc1NC(=O)C1CCC(=O)N1` (centres unmarked) [Compound 10, N-(2-Methoxy-5-(3-(trifluoromethyl)phenoxy)phenyl)-5-oxopyrrolidine-2-carboxamide] was tested, and the IC50 was 50 to 300 nM.

`CN1C(=O)NC[C@H]1C(=O)Nc1cc(/C=C/C2CCC(F)(F)CC2)cc2c1OCO2` [Compound 409] gave an IC50 of under 50 nM.

`O=C(Nc1cc(Oc2ccc(C(F)(F)F)cn2)cc2c1OCC2)[C@H]1CCC(=O)N1C1CC1` [Compound 166, (R)-1-Cyclopropyl-5-oxo-N-(5-((5-(trifluoromethyl)pyridin-2-yl)oxy)-2,3-dihydrobenzofuran-7-yl)pyrrolidine-2-carboxamide] gave an IC50 of under 50 nM.

`COc1ccc(Oc2ccc(F)c(F)c2)cc1NC(=O)C1COC(=O)N1C` (centres unmarked) [Compound 88, N-(5-(3,4-Difluorophenoxy)-2-methoxyphenyl)-3-methyl-2-oxooxazolidine-4-carboxamide] gave an IC50 of under 50 nM.

In the case of `COc1ccc(Oc2ccc(C(F)(F)F)cc2)cc1NC(=O)[C@@H]1CN(C)C(=O)N1C(C)=O` [Compound 342, (S)-3-Acetyl-N-(2-methoxy-5-(4-(trifluoromethyl)phenoxy)phenyl)-1-methyl-2-oxoimidazolidine-4-carboxamide], the IC50 is reported as 50 to 300 nM.

Compound `COc1ccc(Oc2ccc(F)c(C#N)c2)cc1NC(=O)C1CCC(=O)N1C` (centres unmarked) [Compound 397, N-(5-(3-Cyano-4-fluorophenoxy)-2-methoxyphenyl)-1-methyl-5-oxopyrrolidine-2-carboxamide] has an IC50 of 301 to 2000 nM.

For `COc1ccc(Oc2ccc(C(F)(F)F)cc2)cc1NC(=O)C1CNC(=O)N1C` (centres unmarked) [Compound 117, N-(2-Methoxy-5-(4-(trifluoromethyl)phenoxy)phenyl)-3-methyl-2-oxo-imidazolidine-4-carboxamide], the IC50 was under 50 nM.

Compound `COc1ccc(Oc2ccc(C(F)(F)F)cc2)cc1NC(=O)C1CCC(=O)N1C(C)C` (centres unmarked) [Compound 81, 1-Isopropyl-N-(2-methoxy-5-(4-(trifluoromethyl)phenoxy)phenyl)-5-oxo-pyrrolidine-2-carboxamide] has an IC50 of under 50 nM.

Work on `CN1C(=O)NC[C@H]1C(=O)Nc1cc(Oc2ccc(C(F)(F)F)cn2)cc2ccoc12` [Compound 216, (S)-3-Methyl-2-oxo-N-(5-((5-(trifluoromethyl)pyridin-2-yl)oxy)benzofuran-7-yl)imidazolidine-4-carboxamide] yielded an IC50 of under 50 nM.

Work on `COc1ccc(/C=C/C2CCOCC2)cc1NC(=O)C1CCC(=O)N1C` (centres unmarked) [Compound 64, (E)-N-(2-Methoxy-5-(2-(tetrahydro-2H-pyran-4-yl)vinyl)phenyl)-1-methyl-5-oxopyrrolidine-2-carboxamide] yielded an IC50 of 301 to 2000 nM.

Compound `COc1ccc(Oc2ccc(C(F)(F)F)cc2Cl)cc1NC(=O)C1CCC(=O)N1` (centres unmarked) [Compound 350, N-(5-(2-Chloro-4-(trifluoromethyl)phenoxy)-2-methoxyphenyl)-5-oxopyrrolidi-ne-2-carboxamide] has an IC50 of 50 to 300 nM.

`COc1ccc(Oc2cccc(C(F)(F)F)c2)cc1NC(=O)[C@@H]1CCC(=O)N1C(C)=O` (stereo in doubt) [Compound 30, 1-Acetyl-N-(2-methoxy-5-(3-(trifluoromethyl)phenoxy)phenyl)-5-oxo-pyrrolidine-2-carboxamide] showed an IC50 of 50 to 300 nM.

Work on `COc1ccc(Oc2ccc(C(F)F)cn2)cc1NC(=O)C1CNC(=O)N1C` (centres unmarked) [Compound 212, N-(5-((5-(Difluoromethyl)pyridin-2-yl)oxy)-2-methoxyphenyl)-3-methyl-2-oxoimidazolidine-4-carboxamide] yielded an IC50 of 50 to 300 nM.

`CN1C(=O)CCC1C(=O)Nc1cc(COc2ccc(F)c(F)c2)cc2c1OCC2` (centres unmarked) [Compound 242, N-(5-((3,4-Difluorophenoxy)methyl)-2,3-dihydrobenzofuran-7-yl)-1-methyl-5-oxopyrrolidine-2-carboxamide] showed an IC50 of 50 to 300 nM.

`CN1C(=O)NC[C@@H]1C(=O)Nc1cc(Oc2ccc(C(F)(F)F)cn2)ccc1F` [Compound 196, (R)—N-(2-Fluoro-5-((5-(trifluoromethyl)pyridin-2-yl)oxy)phenyl)-3-methyl-2-oxoimidazolidine-4-carboxamide] was tested, and the IC50 was under 50 nM.

Compound `COCC(=O)N1CCC[C@@H]1C(=O)Nc1cc(Oc2ccc(C(F)(F)F)cc2)ccc1OC` [Compound 347, (R)—N-(2-Methoxy-5-(4-(trifluoromethyl)phenoxy)phenyl)-1-(2-methoxyacetyl)-pyrrolidine-2-carboxamide] has an IC50 of 301 to 2000 nM.

In the case of `COc1ccc(Oc2cccc(F)c2)cc1NC(=O)[C@H]1CCC(=O)N1` [Compound 25, (R)—N-(5-(3-Fluorophenoxy)-2-methoxyphenyl)-5-oxopyrrolidine-2-carboxamide], the IC50 is reported as 50 to 300 nM.

`COc1ccc(NC(=O)C2CCC(=O)N2C)cc1Oc1ccc(C(F)(F)F)cc1` (centres unmarked) [Compound 259, N-(4-Methoxy-3-(4-(trifluoromethyl)phenoxy)phenyl)-1-methyl-5-oxo-pyrrolidine-2-carboxamide] gave an IC50 of 50 to 300 nM.

Work on `CN1C(=O)CC[C@@H]1C(=O)Nc1cc(O[C@H]2CC[C@@H](C(F)(F)F)CC2)cc2c1OCC2` [Compound 108, (R)-1-Methyl-5-oxo-N-(5-(((cis)-4-(trifluoromethyl)cyclohexyl)oxy)-2,3-dihydrobenzofuran-7-yl)pyrrolidine-2-carboxamide] yielded an IC50 of 50 to 300 nM.

In the case of `COc1ccc(Oc2cc(F)cc(F)c2)cc1NC(=O)C1CCC(=O)N1C` (centres unmarked) [Compound 78, N-(5-(3,5-Difluorophenoxy)-2-methoxyphenyl)-1-methyl-5-oxopyrrolidine-2-carboxamide], the IC50 is reported as 50 to 300 nM.

For `O=C(Nc1cc(Oc2ccc(C(F)(F)F)cc2)cc2c1OCC2)C1CCC(=O)N1C1CC1` (centres unmarked) [Compound 109, 1-Cyclopropyl-5-oxo-N-(5-(4-(trifluoromethyl)phenoxy)-2,3-dihydro-benzofuran-7-yl)pyrrolidine-2-carboxamide], the IC50 was under 50 nM.

For `COc1ccc(Oc2ccc(C(F)(F)F)cc2)cc1NC(=O)C1CCC(=O)N1C(C)=O` (centres unmarked) [Compound 47, 1-Acetyl-N-(2-methoxy-5-(4-(trifluoromethyl)phenoxy)phenyl)-5-oxo-pyrrolidine-2-carboxamide], the IC50 was under 50 nM.

`COc1cc(F)c(Oc2ccc(C(F)(F)F)cn2)cc1NC(=O)C1COC(=O)N1C` (centres unmarked) [Compound 152, N-(4-Fluoro-2-methoxy-5-((5-(trifluoromethyl)pyridin-2-yl)oxy)phenyl)-3-methyl-2-oxooxazolidine-4-carboxamide] was tested, and the IC50 was under 50 nM.

Work on `COc1ccc(Oc2ccc(C(F)(F)F)cc2)cc1NC(=O)C1CCC(=O)N1C(=O)C1CC(=O)N1` (centres unmarked) [Compound 231, N-(2-Methoxy-5-(4-(trifluoromethyl)phenoxy)phenyl)-5-oxo-1-(4-oxoazetidine-2-carbonyl)pyrrolidine-2-carboxamide] yielded an IC50 of under 50 nM.

With `O=C1CC(C(=O)Nc2cc(Oc3ccc(C(F)(F)F)cn3)cc3c2OCC3)CCN1` (centres unmarked) [Compound 160, 2-Oxo-N-(5-((5-(trifluoromethyl)pyridin-2-yl)oxy)-2,3-dihydrobenzofuran-7-yl)-piperidine-4-carboxamide] the IC50 was 50 to 300 nM.

Work on `COc1ccc(COc2cccc(F)c2)cc1NC(=O)[C@H]1NC(=O)C[C@H]1C` (racemic) [Compound 20, rac-(cis)-N-(5-((3-Fluorophenoxy)methyl)-2-methoxyphenyl)-3-methyl-5-oxo-pyrrolidine-2-carboxamide] yielded an IC50 of 301 to 2000 nM.

Compound `CN1C(=O)OC[C@@H]1C(=O)Nc1cc(Oc2ccc(C(F)(F)F)cn2)ccc1F` [Compound 198, (R)—N-(2-Fluoro-5-((5-(trifluoromethyl)pyridin-2-yl)oxy)phenyl)-3-methyl-2-oxooxazolidine-4-carboxamide] has an IC50 of 50 to 300 nM.

`COc1ccc(Oc2cc(F)ccc2F)cc1NC(=O)C1CCC(=O)N1` (centres unmarked) [Compound 79, N-(5-(2,5-Difluorophenoxy)-2-methoxyphenyl)-5-oxopyrrolidine-2-carboxamide] showed an IC50 of 301 to 2000 nM.

In the case of `COc1ccc(Oc2ccc(C(F)(F)F)cn2)cc1NC(=O)[C@@H]1CN(C)C(=O)N1C` [Compound 346, (S)—N-(2-Methoxy-5-((5-(trifluoromethyl)pyridin-2-yl)oxy)phenyl)-1,3-dimethyl-2-oxoimidazolidine-4-carboxamide], the IC50 is reported as 50 to 300 nM.

`COc1cc(NC(=O)C2CCC(=O)N2C)cc(Oc2ccc(C(F)(F)F)cc2)c1` (centres unmarked) [Compound 279, N-(3-Methoxy-5-(4-(trifluoromethyl)phenoxy)phenyl)-1-methyl-5-oxo-pyrrolidine-2-carboxamide] gave an IC50 of under 50 nM.

For `COc1ccc(COc2cccc(C(F)(F)F)c2)cc1NC(=O)C1CCC(=O)N1` (centres unmarked) [Compound 49, N-(2-Methoxy-5-((3-(trifluoromethyl)phenoxy)methyl)phenyl)-5-oxopyrrolidine-2-carboxamide], the IC50 was 50 to 300 nM.

For `COc1cc(NC(=O)C2CCC(=O)N2C)cc(Oc2ccc(Cl)c(C(F)(F)F)c2)c1` (centres unmarked) [Compound 274, N-(3-(4-Chloro-3-(trifluoromethyl)phenoxy)-5-methoxyphenyl)-1-methyl-5-oxopyrrolidine-2-carboxamide], the IC50 was 50 to 300 nM.

Work on `COc1ccc(Oc2ccc(C(F)(F)F)cc2)cc1NC(=O)[C@@H]1CCCN1S(C)(=O)=O` [Compound 311, (S)—N-(2-Methoxy-5-(4-(trifluoromethyl)phenoxy)phenyl)-1-(methylsulfonyl)-pyrrolidine-2-carboxamide] yielded an IC50 of 301 to 2000 nM.

`COc1ccc(Nc2ccc(C(F)(F)F)cc2)cc1NC(=O)C1CCC(=O)N1C` (centres unmarked) [Compound 74, N-(2-Methoxy-5-((4-(trifluoromethyl)phenyl)amino)phenyl)-1-methyl-5-oxo-pyrrolidine-2-carboxamide] gave an IC50 of 50 to 300 nM.

`COc1ccc(Oc2cccc(F)c2)cc1NC(=O)C12CCC(=O)N1CCS2` (centres unmarked) [Compound 18, N-(5-(3-Fluorophenoxy)-2-methoxyphenyl)-5-oxotetrahydropyrrolo[2,1-b]-thiazole-7a(5H)-carboxamide] gave an IC50 of 50 to 300 nM.
